Results taken from US10131652B2, “Pyrimidinyloxy benzene derivatives as herbicides” (E. I. DU PONT DE NEMOURS AND COMPANY, priority 2014, dated 2018).

Columns and labels:
Type in all cases: in vivo
[1] = system: Italian ryegrass (Lolium multiflorum); experiment: Test B pre-/postemergence plant response
Summary of the method: (§1)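 Seeds in loam–sand blend given preemergence soil spray; separately, plants at one- to two-leaf stage (2–10 cm) sprayed postemergence, compounds in non-phytotoxic solvent with surfactant. Injury rated visually versus untreated controls after ~10 days in greenhouse, 0 (no effect) to 100 (complete control).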

[2] = system: barnyardgrass (Echinochloa crus-galli); experiment: Test B pre-/postemergence plant response
Summary of the method: as §1

[3] = system: corn (Zea mays); experiment: Test B pre-/postemergence plant response
Summary of the method: as §1

[4] = system: giant foxtail (Setaria faberii); experiment: Test B pre-/postemergence plant response
Summary of the method: as §1

[5] = system: kochia (Kochia scoparia); experiment: Test B pre-/postemergence plant response
Summary of the method: as §1

[6] = system: pigweed (Amaranthus retroflexus); experiment: Test B pre-/postemergence plant response
Summary of the method: as §1

[7] = system: ragweed (common ragweed, Ambrosia elatior); experiment: Test B pre-/postemergence plant response
Summary of the method: as §1

[8] = system: wheat (Triticum aestivum); experiment: Test B pre-/postemergence plant response
Summary of the method: as §1

[9] = system: blackgrass (Alopecurus myosuroides); experiment: Test B postemergence plant response
Summary of the method: (§2)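 Weeds grown in loam soil/sand pots were sprayed postemergence at 2 to 10 cm height, one- to two-leaf stage. After approximately 10 days in greenhouse, injury was rated visually against untreated controls on a 0 (no effect) to 100 (complete control) scale; dash means no test result.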

[10] = system: galium (catchweed bedstraw, Galium aparine); experiment: Test B postemergence plant response
Summary of the method: as §2

[11] = system: barnyardgrass (Echinochloa crus-galli); experiment: Test C flooded paddy test plant response; conditions: Flood, 250 g ai/ha; scale of 0 to 100 where 0 is no effect and 100 is complete control; 13 to 15 days
Summary of the method: (§3)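 Scored visually on a 0–100 scale (100 = complete control) against untreated plants 13 to 15 days after treatment in the greenhouse. Compounds went into paddy water of pots flooded to 3 cm, holding 2-leaf-stage plants.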

[12] = system: ducksalad (Heteranthera limosa); experiment: Test C flooded paddy test plant response; conditions: Flood, 250 g ai/ha; scale of 0 to 100 where 0 is no effect and 100 is complete control; 13 to 15 days
Summary of the method: as §3

[13] = system: rice (Oryza sativa); experiment: Test C flooded paddy test plant response; conditions: Flood, 250 g ai/ha; scale of 0 to 100 where 0 is no effect and 100 is complete control; 13 to 15 days
Summary of the method: as §3

[14] = system: small-flower umbrella sedge (Cyperus difformis); experiment: Test C flooded paddy test plant response; conditions: Flood, 250 g ai/ha; scale of 0 to 100 where 0 is no effect and 100 is complete control; 13 to 15 days
Summary of the method: as §3

[15] = 31 g ai/ha, Preemergence, 0 to 100 scale where 0 is no effect and 100 is complete control
[16] = 125 g ai/ha, postemergence, 0 to 100 scale, 0 no effect, 100 complete control
[17] = Postemergence, 31 g ai/ha, 0 to 100 scale (0 no effect, 100 complete control)
[18] = Preemergence, 125 g ai/ha, 0 to 100 scale (0 no effect, 100 complete control)
[19] = 500 g ai/ha, postemergence, 0 to 100 scale, 0 no effect, 100 complete control
[20] = Preemergence, 500 g ai/ha, 0 to 100 scale where 0 is no effect and 100 is complete control

Row | SMILES | Plant response rating, Ryegrass, Italian [1, 16] | Ryegrass, Italian plant response rating [1, 18] | Plant response rating, Barnyardgrass [2, 16] | Barnyardgrass plant response rating [2, 18] | Plant response rating, Corn [3, 16] | Plant response rating, Foxtail, Giant [4, 16] | Foxtail, Giant plant response rating [4, 18] | Plant response rating, Kochia [5, 16] | Kochia plant response rating [5, 18] | Plant response rating, Pigweed [6, 16] | Pigweed plant response rating [6, 18] | Plant response rating, Ragweed [7, 16] | Ragweed plant response rating [7, 18] | Plant response rating, Wheat [8, 16] | Plant response rating, Blackgrass [9, 16] | Plant response rating, Galium [10, 16] | Barnyardgrass plant response rating [11] | Ducksalad plant response rating [12] | Rice plant response rating [13] | Sedge, Umbrella plant response rating [14] | other results
1 | Clc1cnc(Oc2ccccc2-c2cocn2)nc1 [Compound 214] | 0 | 0 | 0 | 0 | 0 | 0 | 0 | 0 | 0 | 10 | 0 | 0 | 0 | 0 | 0 | 10 | 0 | 0 | 0 | 0 | Plant response rating, Ryegrass, Italian [1, 15]: 0; Plant response rating, Ryegrass, Italian [1, 17]: 0; Plant response rating, Barnyardgrass [2, 15]: 0; Plant response rating, Barnyardgrass [2, 17]: 0; Plant response rating, Corn [3, 17]: 0; Plant response rating, Foxtail, Giant [4, 15]: 0; Plant response rating, Foxtail, Giant [4, 17]: 0; Plant response rating, Kochia [5, 15]: 0; Plant response rating, Kochia [5, 17]: 0; Plant response rating, Pigweed [6, 15]: 0; Plant response rating, Pigweed [6, 17]: 0; Plant response rating, Ragweed [7, 15]: 0; Plant response rating, Ragweed [7, 17]: 0; Plant response rating, Wheat [8, 17]: 0; Plant response rating, Blackgrass [9, 17]: 0; Plant response rating, Galium [10, 17]: 0
2 | CC(=O)c1cc(-c2ccccc2Oc2ncc(Cl)cn2)no1 [Compound 215] | 0 | 0 | 20 | 40 | 20 | 20 | 20 | 0 | 0 | 20 | 20 | 0 | 0 | 0 | 0 | 20 | 0 | 0 | 0 | 0 | Plant response rating, Ryegrass, Italian [1, 19]: 50; Plant response rating, Ryegrass, Italian [1, 20]: 0; Plant response rating, Barnyardgrass [2, 19]: 90; Plant response rating, Barnyardgrass [2, 20]: 90; Plant response rating, Corn [3, 19]: 40; Plant response rating, Foxtail, Giant [4, 19]: 80; Plant response rating, Foxtail, Giant [4, 20]: 90; Plant response rating, Kochia [5, 19]: 10; Plant response rating, Kochia [5, 20]: 0; Plant response rating, Pigweed [6, 19]: 100; Plant response rating, Pigweed [6, 20]: 90; Plant response rating, Ragweed [7, 19]: 20; Plant response rating, Ragweed [7, 20]: 0; Plant response rating, Wheat [8, 19]: 20; Plant response rating, Blackgrass [9, 19]: 40; Plant response rating, Galium [10, 19]: 70
3 | Cc1csc(-c2ccccc2Oc2ncc(Cl)cn2)c1 [Compound 216] | 0 | 0 | 10 | 10 | 10 | 0 | 0 | 20 | 0 | 30 | 0 | 0 | 0 | 0 | 10 | 50 | 0 | 0 | 0 | 0 | Plant response rating, Ryegrass, Italian [1, 15]: 0; Plant response rating, Ryegrass, Italian [1, 17]: 0; Plant response rating, Barnyardgrass [2, 15]: 0; Plant response rating, Barnyardgrass [2, 17]: 10; Plant response rating, Corn [3, 17]: 0; Plant response rating, Foxtail, Giant [4, 15]: 0; Plant response rating, Foxtail, Giant [4, 17]: 0; Plant response rating, Kochia [5, 15]: 0; Plant response rating, Kochia [5, 17]: 10; Plant response rating, Pigweed [6, 15]: 0; Plant response rating, Pigweed [6, 17]: 10; Plant response rating, Ragweed [7, 15]: 0; Plant response rating, Ragweed [7, 17]: 0; Plant response rating, Wheat [8, 17]: 0; Plant response rating, Blackgrass [9, 17]: 0; Plant response rating, Galium [10, 17]: 20
4 | Fc1cccc(Oc2ncc(Cl)cn2)c1-c1cn(CC(F)(F)F)cn1 [Compound 217] | 0 | 0 | 0 | 0 | 0 | 0 | 0 | 10 | 0 | 10 | 10 | 10 | 0 | 0 | 0 | 10 | 20 | 40 | 0 | 0 | Plant response rating, Ryegrass, Italian [1, 19]: 0; Plant response rating, Ryegrass, Italian [1, 20]: 10; Plant response rating, Barnyardgrass [2, 19]: 0; Plant response rating, Barnyardgrass [2, 20]: 10; Plant response rating, Corn [3, 19]: 0; Plant response rating, Foxtail, Giant [4, 19]: 0; Plant response rating, Foxtail, Giant [4, 20]: 30; Plant response rating, Kochia [5, 19]: 30; Plant response rating, Kochia [5, 20]: 0; Plant response rating, Pigweed [6, 19]: 60; Plant response rating, Pigweed [6, 20]: 70; Plant response rating, Ragweed [7, 19]: 30; Plant response rating, Ragweed [7, 20]: 0; Plant response rating, Wheat [8, 19]: 0; Plant response rating, Blackgrass [9, 19]: 0; Plant response rating, Galium [10, 19]: 30
